Results taken from patent publication US8916599B2, “1H-benz imidazole-5-carboxamides as anti-inflammatory agents” (Orexo AB, priority 2008, dated 2014).

The compounds below were run against T1, recombinant human mPGES-1 (Homo sapiens, UniProt O14684) (assay: mPGES-1 inhibition test (microsomes, PGH2 substrate, HTRF detection of PGE2)). Conditions: inhibition of mPGES-1 at 1 μM (marked in cell).
T1 construct: made in house; host or cells: Rosetta E. coli (microsomal/membrane fraction)
T1 sequence (O14684 1-152): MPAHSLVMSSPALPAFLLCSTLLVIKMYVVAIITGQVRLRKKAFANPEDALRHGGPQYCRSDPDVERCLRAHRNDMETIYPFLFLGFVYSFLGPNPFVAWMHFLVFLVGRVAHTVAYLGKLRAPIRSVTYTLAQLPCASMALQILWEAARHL
Format: biochemical
How it was run: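 Bacterial microsomes with GSH-containing phosphate buffer at pH 7.4 are exposed to test compounds for 25 minutes before a one-minute PGH2 conversion. The quenched, 750-fold diluted mixture is analysed by time-resolved FRET for PGE2.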

Row | inhibition at 1 µM | Structure (SMILES)
1 | 96% | COc1cc2[nH]c(Nc3c(Cl)ccc(C)c3F)nc2cc1C(=O)N[C@H]1CC[C@H](C(F)(F)F)CC1 [Example 622, 2-(6-Chloro-2-fluoro-3-methyl-phenylamino)-6-methoxy-N-(4-trans-trifluoromethyl-cyclohex-1-yl)-1H-benzimidazole-5-carboxamide]
2 | 95% | O=C(Nc1ccc(F)c(Cl)c1)c1ccc2[nH]c(Nc3c(Cl)cccc3Cl)nc2c1 [Example 71, 2-(2,6-Dichloro-phenylamino)-1H-benzimidazole-5-carboxylic acid (3-chloro-4-fluoro-phenyl)-amide]
3 | 99% | CC(C)Oc1cc2c(cc1C(=O)NC1CCC(C)(C)CC1)nc(Nc1c(Cl)ccc(Cl)c1F)n2C [Example 625, 2-(3,6-Dichloro-2-fluoro-phenylamino)-6-isopropoxy-N-(4,4-dimethyl-cyclohex-1-yl)-1-methyl-1H-benzimidazole-5-carboxamide]
4 | 99% | CCOc1cc2[nH]c(Nc3c(Cl)ccc(Cl)c3F)nc2cc1C(=O)NC1CCC2(CC1)CC2 [Example 646, 2-(3,6-Dichloro-2-fluoro-phenylamino)-6-ethoxy-N-(spiro[2.5]oct-6-yl)-1H-benzimidazole-5-carboxamide]

Same assay, conditions: inhibition of mPGES-1 at 10 μM

Row | Structure (SMILES) | inhibition at 10 µM
5 | Cn1c(Nc2c(F)cccc2Cl)nc2cc(C(=O)Nc3ccc(Br)cc3)ccc21 [Example 381, N-(4-Bromophenyl)-2-(2-chloro-6-fluorophenylamino)-1-methyl-1H-benzimidazole-5-carboxamide] | 100%
6 | Cn1c(Nc2c(Cl)cccc2Cl)nc2cc(C(=O)NCC3CCCOC3)ccc21 (stereo not shown) [Example 251, 2-(2,6-Dichloro-phenylamino)-1-methyl-1H-benzimidazole-5-carboxylic acid (tetrahydro-pyran-3-ylmethyl)-amide] | 71%
7 | Cn1c(Nc2c(Cl)cccc2Cl)nc2cc(C(=O)NC3CCc4ccccc4C3)c(F)cc21 (stereo not shown) [Example 162, 2-(2,6-Dichloro-phenylamino)-6-fluoro-1-methyl-1H-benzimidazole-5-carboxylic acid (1,2,3,4-tetrahydro-naphthalen-2-yl)-amide] | 100%
8 | C#Cc1ccccc1Nc1nc2cc(C(=O)Nc3ccc(Br)cc3)ccc2n1C [Example 538, N-(4-Bromophenyl)-2-(2-ethynylphenylamino)-1-methyl-1H-benzimidazole-5-carboxamide] | 85%
9 | Cn1c(Nc2c(Cl)cccc2Cl)nc2cc(C(=O)N[C@H]3CC[C@@H](C(F)(F)F)CC3)c(F)cc21 [Example 170, 2-(2,6-Dichloro-phenylamino)-6-fluoro-1-methyl-1H-benzimidazole-5-carboxylic acid (cis-4-trifluoromethyl-cyclohexyl)-amide] | 100%
10 | Cc1nc(NC(=O)c2cc3nc(Nc4c(Cl)cccc4Cl)[nH]c3cc2F)cc2c1CCCC2 [Example 138, 2-(2,6-Dichloro-phenylamino)-6-fluoro-1H-benzimidazole-5-carboxylic acid (1-methyl-5,6,7,8-tetrahydro-isoquinolin-3-yl)-amide] | 100%
11 | Cn1c(Nc2cc(S(C)(=O)=O)ccc2Cl)nc2cc(C(=O)Nc3ccc(Br)cc3)ccc21 [Example 526, N-(4-Bromophenyl)-2-(2-chloro-5-(methylsulfonyl)phenylamino)-1-methyl-1H-benzimidazole-5-carboxamide] | 93%
12 | COc1cc2nc(Nc3c(Cl)cccc3Cl)[nH]c2cc1C(=O)NCc1ccccc1C(F)(F)F [Example 200] | 98%
13 | O=C(Nc1ccccc1)c1ccc2[nH]c(Nc3cc(Cl)ccc3Cl)nc2c1 [Example 7, 2-(2,5-Dichloro-phenylamino)-1H-benzimidazole-5-carboxylic acid-phenylamide] | 100%
14 | CC(NC(=O)c1ccc2c(c1)nc(Nc1c(Cl)cccc1Cl)n2C)c1ccccn1 (stereo not shown) [Example 242] | 70%
15 | CCCCOc1cccc(NC(=O)c2ccc3[nH]c(Nc4c(Cl)cccc4Cl)nc3c2)n1 [Example 426, N-(6-Butoxypyridin-2-yl)-2-(2,6-dichlorophenylamino)-1H-benzimidazole-5-carboxamide] | 98%
16 | Cn1c(Nc2c(Cl)cccc2Cl)nc2cc(C(=O)NCc3ncccc3C3CC3)c(F)cc21 [Example 422, N-((3-Cyclopropylpyridin-2-yl)methyl)-2-(2,6-dichlorophenylamino)-6-fluoro-1-methyl-1H-benzimidazole-5-carboxamide] | 100%

Results, then the compound that gave them:

Row | inhibition at 10 µM | Structure (SMILES)
17 | 100% | Cc1cc(NC(=O)c2cc3nc(Nc4c(Cl)cccc4Cl)n(C)c3cc2F)ncc1Cl [Example 127, 2-(2,6-Dichloro-phenylamino)-6-fluoro-1-methyl-1H-benzimidazole-5-carboxylic acid (5-chloro-4-methyl-pyridin-2-yl)-amide]
18 | 100% | NCCn1c(Nc2c(Cl)cccc2Cl)nc2cc(C(=O)Nc3cc(Cl)ccn3)ccc21 [Example 211, 2-(2,6-Dichloro-phenylamino)-1-(2-amino-ethyl)-1H-benzimidazole-5-carboxylic acid (4-chloro-pyridin-2-yl)-amide (trifluoroacetate)]
19 | 93% | Cn1c(Nc2c(Cl)cccc2Cl)nc2cc(C(=O)Nc3ccc(Br)cc3)c(F)cc21 [Example 167, 2-(2,6-Dichloro-phenylamino)-6-fluoro-1-methyl-1H-benzimidazole-5-carboxylic acid (4-bromo-phenyl)-amide]
20 | 99% | COc1cc2[nH]c(Nc3c(Cl)ccc(CC#N)c3Cl)nc2cc1C(=O)Nc1ccc(Br)cc1 [Example 639, 2-(2,6-Dichloro-3-cyanomethyl-phenylamino)-N-(4-bromphenyl)-6-methoxy-1H-benzimidazol-5-carboxamide]
21 | 99% | Cc1cccnc1CNC(=O)c1cc2nc(Nc3c(Cl)cccc3Cl)n(C)c2cc1F [Example 510, 2-(2,6-Dichlorophenylamino)-6-fluoro-1-methyl-N-((3-methylpyridin-2-yl)methyl)-1H-benzimidazole-5-carboxamide]
22 | 100% | O=C(NC1CCC2(CC1)CC2)c1cc2nc(Nc3c(Cl)cccc3Cl)[nH]c2cc1F [Example 387, 2-(2,6-Dichlorophenylamino)-6-fluoro-N-(spiro[2.5]octan-6-yl)-1H-benzimidazole-5-carboxamide]
23 | 100% | COc1cc2nc(Nc3c(Cl)cccc3Cl)[nH]c2cc1C(=O)NC1CCCCC1 [Example 199, N-(Cyclohexyl)-2-(2,6-dichlorophenylamino)-6-methoxy-1H-benzimidazole-5-carboxamide]
24 | 60% | Cn1c(Nc2cc(C(=O)O)ccc2Cl)nc2cc(C(=O)Nc3ccc(Br)cc3)ccc21 [Example 573, 3-(5-(4-Bromophenylcarbamoyl)-1-methyl-1H-benzimidazol-2-yl-amino)-4-chlorobenzoic acid]
25 | 100% | Cc1cccc(C)c1Nc1nc2cc(C(=O)Nc3ccccc3)ccc2[nH]1 [Example 13, 2-(2,6-Dimethyl-phenylamino)-1H-benzimidazole-5-carboxylic acid-phenylamide]
26 | 100% | O=C(N[C@H]1CC[C@H](C(F)(F)F)CC1)c1cc2nc(Nc3c(Cl)cccc3Cl)[nH]c2cc1OCC(F)(F)F [Example 589, 2-(2,6-Dichloro-phenylamino)-6-(2,2,2-trifluoroethoxy)-N-(trans-4-trifluormethyl-cyclohex-1-yl)-1H-benzimidazole-5-carboxamide]
27 | 92% | Cn1c(Nc2c(Cl)cccc2Cl)nc2cc(C(=O)NCc3cccc(C(F)(F)F)n3)ccc21 [Example 247, 2-(2,6-Dichloro-phenylamino)-1-methyl-1H-benzimidazole-5-carboxylic acid (6-trifluoromethyl-pyridin-2-ylmethyl)-amide]
28 | 97% | O=C(Nc1ccc(Br)cc1)c1cc2[nH]c(Nc3c(Cl)cccc3Cl)nc2cc1F [Example 144, 2-(2,6-Dichloro-phenylamino)-6-fluoro-3H-benzimidazole-5-carboxylic acid (4-bromo-phenyl)-amide]
29 | 87% | O=C(NCc1cc(C(F)(F)F)ccn1)c1ccc2[nH]c(Nc3c(Cl)cccc3Cl)nc2c1 [Example 221, 2-(2,6-Dichloro-phenylamino)-1H-benzimidazole-5-carboxylic acid (4-trifluoromethyl-pyridin-2-ylmethyl)-amide]
30 | 100% | O=C(Nc1ccc(Br)cc1)c1ccc2[nH]c(Nc3ccc(Cl)cc3Cl)nc2c1 [Example 109, 2-(2,4-Dichloro-phenylamino)-1H-benzimidazole-5-carboxylic acid (4-bromo-phenyl)-amide]
31 | 100% | Cc1cc(NC(=O)c2ccc3nc(Nc4c(Cl)cccc4Cl)[nH]c3c2)cc(Cl)n1 [Example 198, 2-(2,6-Dichloro-phenylamino)-3H-benzimidazole-5-carboxylic acid (2-chloro-6-methyl-pyridin-4-yl)-amide]
32 | 99% | Cn1c(Nc2ccc(F)cc2C(F)(F)F)nc2cc(C(=O)Nc3ccc(Br)cc3)ccc21 [Example 385, N-(4-Bromophenyl)-2-(4-fluoro-2-trifluoromethyl-phenylamino)-1-methyl-1H-benzimidazole-5-carboxamide]
33 | 100% | COc1cc2c(cc1C(=O)NCc1ncccc1C)nc(Nc1c(Cl)cccc1Cl)n2C [Example 465, 2-(2,6-Dichlorophenylamino)-6-methoxy-1-methyl-N-((3-methylpyridin-2-yl)methyl)-1H-benzimidazole-5-carboxamide]
34 | 100% | CNCCn1c(Nc2c(Cl)cccc2Cl)nc2cc(C(=O)Nc3cc(Cl)ccn3)ccc21 [Example 212, 2-(2,6-Dichloro-phenylamino)-1-(2-methylamino-ethyl)-1H-benzimidazole-5-carboxylic acid (4-chloro-pyridin-2-yl)-amide (trifluoroacetate)]
